PubChem BioAssay AID256 (DTP/NCI, 2004)
Inconclusive results and toxic doses are left out. The calls were made as follows: active = survival T/C of 150% or more; inactive = T/C below 125% in these data.

Test system: CD2F1 mice, L1210 leukemia ip, survival T/C
Assay: NCI In Vivo Anticancer Drug Screen. Data for tumor model L1210 Leukemia (intraperitoneal) in CD2F1 (CDF1) mice
Conditions: higher = longer survival
Method in brief: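 Compound-dosed mice with transplantable tumor versus matched vehicle controls; endpoint ratio T/C reported.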

Measured: T/C

O=C(OCC1OC(n2cnc(=O)[nH]c2=O)C(OC(=O)c2ccccc2)C1OC(=O)c1ccccc1)c1ccccc1 (centres undefined)
inactive: endpoint: mean survival time, dose: 1.25 mg/kg/injection, schedule: Q04DX003 (ip), vehicle: saline 96 % of control | endpoint: mean survival time, dose: 2.5 mg/kg/injection, schedule: Q04DX003 (ip), vehicle: saline 101 % of control | endpoint: mean survival time, dose: 5.0 mg/kg/injection, schedule: Q04DX003 (ip), vehicle: saline 98 % of control | endpoint: mean survival time, dose: 10.0 mg/kg/injection, schedule: Q04DX003 (ip), vehicle: saline 101 % of control | endpoint: mean survival time, dose: 20.0 mg/kg/injection, schedule: Q04DX003 (ip), vehicle: saline 98 % of control | endpoint: mean survival time, dose: 40.0 mg/kg/injection, schedule: Q04DX003 (ip), vehicle: saline 98 % of control

COc1ccc(CC2C(=O)NC(C)C(=O)N(C)C3Cc4ccc(cc4)Oc4cc(ccc4O)CC(C(=O)NC(C)C(=O)NC(C)C(=O)N2C)N(C)C3=O)cc1 (centres undefined)
inactive: endpoint: mean survival time, dose: 1.0 mg/kg/injection, schedule: Q01DX009 (ip), vehicle: saline with Tween-80 112 % of control | endpoint: mean survival time, dose: 2.0 mg/kg/injection, schedule: Q01DX009 (ip), vehicle: saline with Tween-80 112 % of control | endpoint: mean survival time, dose: 4.0 mg/kg/injection, schedule: Q01DX009 (ip), vehicle: saline with Tween-80 116 % of control | endpoint: mean survival time, dose: 16.0 mg/kg/injection, schedule: Q01DX009 (ip), vehicle: saline with Tween-80 122 % of control | endpoint: median survival time, dose: 2.0 mg/kg/injection, schedule: Q01DX009 (ip), vehicle: saline with Tween-80 122 % of control | endpoint: median survival time, dose: 4.0 mg/kg/injection, schedule: Q01DX009 (ip), vehicle: saline with Tween-80 124 % of control | endpoint: median survival time, dose: 16.0 mg/kg/injection, schedule: Q01DX009 (ip), vehicle: saline with Tween-80 111 % of control

COc1cc(OC)c(C(=O)c2ccccc2N)c(OC)c1
inactive: endpoint: mean survival time, dose: 50.0 mg/kg/injection, schedule: Q01DX009 (ip), vehicle: saline with Tween-80 98 % of control | endpoint: mean survival time, dose: 100.0 mg/kg/injection, schedule: Q01DX009 (ip), vehicle: saline with Tween-80 101 % of control | endpoint: mean survival time, dose: 200.0 mg/kg/injection, schedule: Q01DX009 (ip), vehicle: saline with Tween-80 98 % of control

CC(=O)Nc1cc2c3c(c1)CCN3CCC2
inactive: endpoint: mean survival time, dose: 3.13 mg/kg/injection, schedule: Q01DX001 (ip), vehicle: saline 100 % of control | endpoint: mean survival time, dose: 6.25 mg/kg/injection, schedule: Q01DX001 (ip), vehicle: saline 113 % of control | endpoint: mean survival time, dose: 12.5 mg/kg/injection, schedule: Q01DX001 (ip), vehicle: saline 112 % of control

O=C(O)CC(C(=O)O)C(=O)O
inactive: endpoint: mean survival time, dose: 100.0 mg/kg/injection, schedule: Q04DX003 (ip), vehicle: saline 100 % of control | endpoint: mean survival time, dose: 200.0 mg/kg/injection, schedule: Q04DX003 (ip), vehicle: saline 97 % of control | endpoint: mean survival time, dose: 400.0 mg/kg/injection, schedule: Q04DX003 (ip), vehicle: saline 94 % of control

CC([NH-])CC(C)[NH-].[I][Pt+2][I] (centres undefined)
inactive: endpoint: mean survival time, dose: 6.25 mg/kg/injection, schedule: Q04DX003 (ip), vehicle: saline with Tween-80 113 % of control | endpoint: mean survival time, dose: 12.5 mg/kg/injection, schedule: Q04DX003 (ip), vehicle: saline with Tween-80 121 % of control

CN(C)C(=S)[S][Sn]([CH3])([CH3])[CH3]
inactive: endpoint: mean survival time, dose: 0.39 mg/kg/injection, schedule: Q01DX009 (ip), vehicle: saline 115 % of control | endpoint: mean survival time, dose: 0.78 mg/kg/injection, schedule: Q01DX009 (ip), vehicle: saline 107 % of control | endpoint: mean survival time, dose: 1.56 mg/kg/injection, schedule: Q01DX009 (ip), vehicle: saline 95 % of control

CN(C)Cc1ncccc1O
inactive: endpoint: mean survival time, dose: 50.0 mg/kg/injection, schedule: Q01DX009 (ip), vehicle: suspension in saline 110 % of control | endpoint: mean survival time, dose: 100.0 mg/kg/injection, schedule: Q01DX009 (ip), vehicle: suspension in saline 108 % of control | endpoint: mean survival time, dose: 200.0 mg/kg/injection, schedule: Q01DX009 (ip), vehicle: suspension in saline 112 % of control

CN(C)N=Nc1cccc([N+](=O)[O-])c1
inactive: endpoint: mean survival time, dose: 79.0 mg/kg/injection, schedule: Q01DX009 (ip), vehicle: Klucel (hydroxypropylcellulose) (HPC) 107 % of control | endpoint: mean survival time, dose: 118.0 mg/kg/injection, schedule: Q01DX009 (ip), vehicle: Klucel (hydroxypropylcellulose) (HPC) 102 % of control

CCCCCCCCCCCCCCCC(=O)N1CCCN(C(=O)CCCCCCCCCCCCCCC)C1
inactive: endpoint: mean survival time, dose: 75.0 mg/kg/injection, schedule: Q04DX003 (ip), vehicle: saline 89 % of control | endpoint: mean survival time, dose: 150.0 mg/kg/injection, schedule: Q04DX003 (ip), vehicle: saline 89 % of control | endpoint: mean survival time, dose: 300.0 mg/kg/injection, schedule: Q04DX003 (ip), vehicle: saline 103 % of control

Cc1ccc(S(=O)(=O)OCC(O)C2OCOC3COCOC32)cc1 (centres undefined)
inactive: endpoint: mean survival time, dose: 100.0 mg/kg/injection, schedule: Q01DX001 (ip), vehicle: Klucel (hydroxypropylcellulose) (HPC) 101 % of control | endpoint: mean survival time, dose: 200.0 mg/kg/injection, schedule: Q01DX001 (ip), vehicle: Klucel (hydroxypropylcellulose) (HPC) 103 % of control | endpoint: mean survival time, dose: 400.0 mg/kg/injection, schedule: Q01DX001 (ip), vehicle: Klucel (hydroxypropylcellulose) (HPC) 98 % of control | endpoint: mean survival time, dose: 600.0 mg/kg/injection, schedule: Q01DX001 (ip), vehicle: Klucel (hydroxypropylcellulose) (HPC) 93 % of control
